ChEMBL document CHEMBL1201862, “PubChem BioAssay data set” (2004)
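Test compounds were applied to cells in 96-well plates for 48 hours at 5 doses. The concentration for 50% growth inhibition is given as GI50.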 Active and inactive are the calls of the source. Rule as the data show it: active = GI50 up to about 1.1 µM and inactive = higher.

Key:
Experiment in all cases: growth of human tumour cells (NCI), 48 h
786-0 = test system: 786-0
A498 = test system: A498
A549 = test system: A549
ACHN = test system: ACHN
CAKI-1 = test system: CAKI-1
CCRF-CEM = test system: CCRF-CEM
COLO 205 = test system: COLO 205
DLD-1 = test system: DLD-1
DMS-114 = test system: DMS-114
DMS-273 = test system: DMS-273
EKVX = test system: EKVX
HCC 2998 = test system: HCC 2998
HCT-116 = test system: HCT-116
HCT-15 = test system: HCT-15
HL-60 = test system: HL-60
HOP-62 = test system: HOP-62
HOP-92 = test system: HOP-92
HT-29 = test system: HT-29
IGROV-1 = test system: IGROV-1
K562 = test system: K562
KM-20L2 = test system: KM-20L2
KM12 = test system: KM12
LOX IMVI = test system: LOX IMVI
LXFL 529 = test system: LXFL 529
M14 = test system: M14
M19-MEL = test system: M19-MEL
Malme-3M = test system: Malme-3M
NCI-H226 = test system: NCI-H226
NCI-H23 = test system: NCI-H23
NCI-H460 = test system: NCI-H460
NCI-H522 = test system: NCI-H522
OVCAR-3 = test system: OVCAR-3
OVCAR-4 = test system: OVCAR-4
OVCAR-5 = test system: OVCAR-5
OVCAR-8 = test system: OVCAR-8
RPMI-8226 = test system: RPMI-8226
RXF 393 = test system: RXF 393
SF-268 = test system: SF-268
SF-295 = test system: SF-295
SF-539 = test system: SF-539
SK-MEL-28 = test system: SK-MEL-28
SK-MEL-5 = test system: SK-MEL-5
SK-OV-3 = test system: SK-OV-3
SN12C = test system: SN12C
SNB-19 = test system: SNB-19
SNB-75 = test system: SNB-75
SNB-78 = test system: SNB-78
SR = test system: SR
SW-620 = test system: SW-620
TK-10 = test system: TK-10
U-251 = test system: U-251
UACC-257 = test system: UACC-257
UACC-62 = test system: UACC-62
UO-31 = test system: UO-31
BT-549 = test system: BT-549
DU-145 = test system: DU-145
Hs-578T = test system: Hs-578T
MCF7 = test system: MCF7
MDA-MB-231 = test system: MDA-MB-231
MDA-MB-435 = test system: MDA-MB-435
MDA-N = test system: MDA-N
MOLT-4 = test system: MOLT-4
NCI/ADR-RES = test system: NCI/ADR-RES
PC-3 = test system: PC-3
SK-MEL-2 = test system: SK-MEL-2
T47D = test system: T47D
XF498 = test system: XF498

Compound: CN1C2(c3ccccc3)C(C(=O)c3ccccc3)=C(C(=O)c3ccccc3)C1(c1ccccc1)c1c(-c3ccccc3)sc(-c3ccccc3)c12
- GI50 (786-0): > 100 µM (inactive)
- GI50 (A498): > 100 µM (inactive)
- GI50 (A549): > 100 µM (inactive)
- GI50 (ACHN): > 100 µM (inactive)
- GI50 (CAKI-1): > 100 µM (inactive)
- GI50 (CCRF-CEM): > 100 µM (inactive)
- GI50 (COLO 205): > 100 µM (inactive)
- GI50 (DLD-1): > 100 µM (inactive)
- GI50 (DMS-114): > 100 µM (inactive)
- GI50 (DMS-273): > 100 µM (inactive)
- GI50 (EKVX): > 100 µM (inactive)
- GI50 (HCC 2998): > 100 µM (inactive)
- GI50 (HCT-116): > 100 µM (inactive)
- GI50 (HCT-15): > 100 µM
- GI50 (HL-60): > 100 µM (inactive)
- GI50 (HOP-62): > 100 µM (inactive)
- GI50 (HOP-92): > 100 µM (inactive)
- GI50 (HT-29): > 100 µM (inactive)
- GI50 (IGROV-1): > 100 µM (inactive)
- GI50 (K562): > 100 µM (inactive)
- GI50 (KM-20L2): > 100 µM (inactive)
- GI50 (KM12): > 100 µM (inactive)
- GI50 (LOX IMVI): > 100 µM (inactive)
- GI50 (LXFL 529): > 100 µM (inactive)
- GI50 (M14): > 100 µM (inactive)
- GI50 (M19-MEL): > 100 µM (inactive)
- GI50 (Malme-3M): > 100 µM (inactive)
- GI50 (NCI-H226): 78.5 µM (inactive)
- GI50 (NCI-H23): > 100 µM (inactive)
- GI50 (NCI-H460): > 100 µM (inactive)
- GI50 (NCI-H522): > 100 µM (inactive)
- GI50 (OVCAR-3): > 100 µM (inactive)
- GI50 (OVCAR-4): > 100 µM (inactive)
- GI50 (OVCAR-5): > 100 µM (inactive)
- GI50 (OVCAR-8): > 100 µM (inactive)
- GI50 (RPMI-8226): > 100 µM (inactive)
- GI50 (RXF 393): > 100 µM (inactive)
- GI50 (SF-268): > 100 µM (inactive)
- GI50 (SF-295): > 100 µM (inactive)
- GI50 (SF-539): > 100 µM (inactive)
- GI50 (SK-MEL-28): > 100 µM (inactive)
- GI50 (SK-MEL-5): > 100 µM (inactive)
- GI50 (SK-OV-3): > 100 µM (inactive)
- GI50 (SN12C): > 100 µM (inactive)
- GI50 (SNB-19): > 100 µM (inactive)
- GI50 (SNB-75): > 100 µM (inactive)
- GI50 (SNB-78): > 100 µM (inactive)
- GI50 (SR): > 100 µM (inactive)
- GI50 (SW-620): > 100 µM (inactive)
- GI50 (TK-10): > 100 µM (inactive)
- GI50 (U-251): > 100 µM (inactive)
- GI50 (UACC-257): > 100 µM (inactive)
- GI50 (UACC-62): > 100 µM (inactive)
- GI50 (UO-31): > 100 µM (inactive)

Compound: CC1=NN(C(=O)c2ccccc2O)C(=O)/C1=C/c1c(O)ccc2ccccc12
- GI50 (786-0): 0.316 µM (active)
- GI50 (A498): 2.44 µM (inactive)
- GI50 (A549): 2.06 µM (inactive)
- GI50 (ACHN): 0.955 µM (active)
- GI50 (BT-549): 4.7 µM (inactive)
- GI50 (CAKI-1): 1.32 µM (inactive)
- GI50 (CCRF-CEM): 0.312 µM (active)
- GI50 (COLO 205): 2.9 µM (inactive)
- GI50 (DMS-114): 0.219 µM (active)
- GI50 (DU-145): 0.607 µM (active)
- GI50 (EKVX): 0.713 µM (active)
- GI50 (HCC 2998): 12.9 µM (inactive)
- GI50 (HCT-116): 0.689 µM (active)
- GI50 (HCT-15): 0.48 µM
- GI50 (HL-60): 0.299 µM (active)
- GI50 (HOP-62): 0.944 µM (active)
- GI50 (HOP-92): 1.96 µM (inactive)
- GI50 (HT-29): 10.2 µM (inactive)
- GI50 (Hs-578T): 21.4 µM (inactive)
- GI50 (IGROV-1): 1.22 µM (inactive)
- GI50 (K562): 1.73 µM (inactive)
- GI50 (KM-20L2): 4.59 µM (inactive)
- GI50 (KM12): 2.78 µM (inactive)
- GI50 (LOX IMVI): 0.625 µM (active)
- GI50 (LXFL 529): 1.72 µM (inactive)
- GI50 (M14): 0.587 µM (active)
- GI50 (M19-MEL): 0.46 µM (active)
- GI50 (MCF7): 3.31 µM (inactive)
- GI50 (MDA-MB-231): 3.97 µM (inactive)
- GI50 (MDA-MB-435): 4.94 µM (inactive)
- GI50 (MDA-N): 5.2 µM (inactive)
- GI50 (MOLT-4): 1.8 µM (inactive)
- GI50 (Malme-3M): 1.52 µM (inactive)
- GI50 (NCI-H226): 1.53 µM (inactive)
- GI50 (NCI-H23): 1.43 µM (inactive)
- GI50 (NCI-H460): 0.676 µM (active)
- GI50 (NCI-H522): 0.839 µM (active)
- GI50 (NCI/ADR-RES): 1.34 µM (inactive)
- GI50 (OVCAR-3): 0.201 µM (active)
- GI50 (OVCAR-4): 0.468 µM (active)
- GI50 (OVCAR-5): 4.11 µM (inactive)
- GI50 (OVCAR-8): 1.01 µM (active)
- GI50 (PC-3): 2.03 µM (inactive)
- GI50 (RPMI-8226): 1.46 µM (inactive)
- GI50 (RXF 393): 0.787 µM (active)
- GI50 (SF-268): 0.723 µM (active)
- GI50 (SF-295): 2.23 µM (inactive)
- GI50 (SF-539): 0.804 µM (active)
- GI50 (SK-MEL-28): 1.69 µM (inactive)
- GI50 (SK-MEL-2): 1.14 µM (inactive)
- GI50 (SK-MEL-5): 1.19 µM (inactive)
- GI50 (SK-OV-3): 0.741 µM (active)
- GI50 (SN12C): 1.22 µM (inactive)
- GI50 (SNB-19): 3.26 µM (inactive)
- GI50 (SNB-75): 2.42 µM (inactive)
- GI50 (SNB-78): 26.6 µM (inactive)
- GI50 (SR): 0.364 µM (active)
- GI50 (SW-620): 0.863 µM (active)
- GI50 (T47D): 41.1 µM (inactive)
- GI50 (TK-10): 8.87 µM (inactive)
- GI50 (U-251): 0.982 µM (active)
- GI50 (UACC-257): 2.47 µM (inactive)
- GI50 (UACC-62): 0.287 µM (active)
- GI50 (UO-31): 0.968 µM (active)
- GI50 (XF498): 4.86 µM (inactive)
